Consider 23 molecules from US20260138961A1, “MODULATORS OF MITOCHONDRIAL DNA REPLICATION” (Pretzel Therapeutics, Inc., priority 2022, published 2026).

Some results are limits rather than exact numbers.

The target in the test is T1, POLγA:Y955C (Homo sapiens, UniProt P54098, Y955C).
T1 sequence (P54098 1-1239 Y955C): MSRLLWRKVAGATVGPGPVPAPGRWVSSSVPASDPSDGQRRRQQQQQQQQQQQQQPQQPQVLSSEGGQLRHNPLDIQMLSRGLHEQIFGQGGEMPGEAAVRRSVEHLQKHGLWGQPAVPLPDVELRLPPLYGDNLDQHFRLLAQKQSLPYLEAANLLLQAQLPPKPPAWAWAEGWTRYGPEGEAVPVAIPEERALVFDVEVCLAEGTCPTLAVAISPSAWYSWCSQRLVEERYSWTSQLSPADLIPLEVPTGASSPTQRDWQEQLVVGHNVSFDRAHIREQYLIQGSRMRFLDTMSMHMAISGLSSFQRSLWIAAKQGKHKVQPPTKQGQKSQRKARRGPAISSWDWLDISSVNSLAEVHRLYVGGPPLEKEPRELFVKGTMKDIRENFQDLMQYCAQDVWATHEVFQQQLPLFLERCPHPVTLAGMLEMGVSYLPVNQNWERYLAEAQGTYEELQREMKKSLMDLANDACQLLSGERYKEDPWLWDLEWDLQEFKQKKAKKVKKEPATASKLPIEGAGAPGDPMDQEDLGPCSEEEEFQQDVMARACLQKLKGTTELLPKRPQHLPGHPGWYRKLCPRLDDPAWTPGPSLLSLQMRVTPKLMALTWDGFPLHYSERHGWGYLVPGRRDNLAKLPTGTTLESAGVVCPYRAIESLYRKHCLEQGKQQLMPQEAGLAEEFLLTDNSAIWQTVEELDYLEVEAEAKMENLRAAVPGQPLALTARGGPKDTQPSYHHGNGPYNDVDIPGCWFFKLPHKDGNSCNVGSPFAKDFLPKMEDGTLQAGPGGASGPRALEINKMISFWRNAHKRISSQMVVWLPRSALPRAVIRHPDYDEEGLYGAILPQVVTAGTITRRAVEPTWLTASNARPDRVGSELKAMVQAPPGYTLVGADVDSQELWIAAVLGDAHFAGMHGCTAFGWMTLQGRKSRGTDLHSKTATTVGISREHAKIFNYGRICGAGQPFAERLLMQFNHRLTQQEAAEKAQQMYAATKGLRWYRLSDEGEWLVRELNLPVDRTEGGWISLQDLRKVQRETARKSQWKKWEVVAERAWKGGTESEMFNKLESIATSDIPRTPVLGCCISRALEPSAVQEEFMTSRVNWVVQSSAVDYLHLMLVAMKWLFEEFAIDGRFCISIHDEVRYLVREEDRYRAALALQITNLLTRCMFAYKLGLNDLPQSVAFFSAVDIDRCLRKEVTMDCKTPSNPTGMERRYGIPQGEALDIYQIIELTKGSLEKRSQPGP
T1 sequence (Q9UHN1 1-485 partner): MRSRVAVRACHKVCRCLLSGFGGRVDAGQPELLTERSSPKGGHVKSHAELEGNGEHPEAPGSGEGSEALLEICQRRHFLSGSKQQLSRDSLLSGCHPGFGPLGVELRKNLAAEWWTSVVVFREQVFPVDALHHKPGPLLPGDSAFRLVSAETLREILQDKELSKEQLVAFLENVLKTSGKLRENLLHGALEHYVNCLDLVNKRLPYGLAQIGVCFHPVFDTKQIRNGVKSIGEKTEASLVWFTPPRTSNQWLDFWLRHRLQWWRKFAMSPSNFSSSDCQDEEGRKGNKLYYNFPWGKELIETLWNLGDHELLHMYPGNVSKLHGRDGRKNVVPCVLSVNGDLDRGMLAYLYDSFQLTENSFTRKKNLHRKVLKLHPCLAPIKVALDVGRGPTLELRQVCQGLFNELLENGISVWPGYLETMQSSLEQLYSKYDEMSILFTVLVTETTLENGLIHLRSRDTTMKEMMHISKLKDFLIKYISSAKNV
The test is described as follows: DNA polymerization assay, POLγA:Y955C mutant. It is filed as biochemical. Conditions: stimulation of polymerase activity, primed M13mp18 ssDNA, 37° C. 2 hours. As to the method: DNA Polymerization Assay to Monitor Effects on Human Wildtype POLγ and Four Disease-Causing Mutant Variants of Human POLγ.
The ability of small molecules to stimulate the polymerase activity of POLγ was analyzed in a quantitative fluorescence SYBR Green I assay with fluorescence intensity (FI) readout.
In the presence of dNTPs, wild type human POLγ and mutant derivatives thereof were incubated with single-stranded, circular M13mp18 ssDNA hybridized to a short DNA oligonucleotide that functions as a primer for initiation of DNA synthesis. POLγ and mutant derivatives thereof will extend the primer and use the M13mp18 molecule as a template to synthesize long stretches of double-stranded DNA. SYBR Green I, which is a double-stranded DNA-binding dye, was used to quantify formation of double-stranded DNA in the reaction. When bound to double-stranded DNA, SYBR Green I fluorescence increases by up to 100-fold.
The assay was performed in the 384-well plate format. Upon addition of compounds, changes in double-stranded DNA synthesis activity can be monitored by following effects on fluorescent intensity.
The reactions also contained the accessory POLγB subunit, and the human mitochondrial single-stranded DNA binding protein (mtSSB).
The DNA template mixture used in the assay contained 0.5 nM primed M13 mp18 ssDNA, 400 nM mtSSB, 0.1 mM Tris-HCl (pH 8.0), 0.1 mM dNTP, 10 mM MgCl2, 0.1 mg/mL BSA, 1 mM TCEP solution, and 0.02% Triton X-100. The DNA template mixture for the wild type protein contained either 100 μM dNTP, 1 μM dNTP, or 0.1 μM dNTP, designated in Table 2 as 100 μM, 1 μM, and 0.1 μM, respectfully.
Microplates with compounds (0.1 μL in each well) to be tested in the assay were prepared from 10 mM compound stocks in 100% DMSO, and equal amounts of DMSO without any compound were added to positive and negative control wells.
The protein mixture was dispensed (5 μL into each well) into compound plates and incubated at 37° C. for 15 minutes. After incubation, 5 μL of the DNA template mixture was dispensed into each well. The plates were then incubated at 37° C. for 2 hours.
During incubation, a combined stop buffer and detection reagent solution was prepared. The buffer contained 25 mM EDTA (pH 8.0), 0.02% Triton X-100, and SYBR Green I [Invitrogen] diluted 10,000× (for fluorescent readout). EDTA will stop the enzymatic reaction by chelating magnesium ions.
`Cc1ccc(C)c(S(=O)(=O)Nc2cccc(C(=O)N3CCCC[C@H]3C)c2)c1` [Example 5, (R)-2,5-dimethyl-N-(3-(2-methylpiperidine-1-carbonyl)phenyl)benzenesulfonamide]: the activity was half-maximal at 3000 nM (AC50). `Cc1cc(S(=O)(=O)Nc2cccc(-c3nccn3C)c2)c(C)cc1Cl` [Example 19, 4-chloro-2,5-dimethyl-N-(3-(1-methyl-1H-imidazol-2-yl)phenyl)benzenesulfonamide] yielded an AC50 of 500 nM. With `Cc1ccc(C)c(S(=O)(=O)Nc2cccc(C(=O)N3CCCCC3C#N)c2)c1` (centres unmarked) [Example 2, N-(3-(2-cyanopiperidine-1-carbonyl)phenyl)-2,5-dimethylbenzenesulfonamide], the AC50 is 1000 nM.

Molecule `Cc1cc(S(=O)(=O)Nc2cccc(-c3nccs3)c2)c(C)cc1Cl` [Example 16, 4-chloro-2,5-dimethyl-N-(3-(thiazol-2-yl)phenyl)benzenesulfonamide] gave an AC50 of 800 nM.

For `Cc1cc(S(=O)(=O)Nc2cccc(C(=O)NCc3ccccc3)c2)c(C)cc1Cl` [Example 11, N-benzyl-3-((4-chloro-2,5-dimethylphenyl)sulfonamido)benzamide], the concentration at half-maximal activity (AC50) came to 4000 nM. `Cc1ccc(C)c(S(=O)(=O)Nc2cccc(C(=O)N3CCOCC3C#N)c2)c1` (centres unmarked) [Example 7, N-(3-(3-cyanomorpholine-4-carbonyl)phenyl)-2,5-dimethylbenzenesulfonamide] returned a half-maximal activity concentration (AC50) of 1000 nM.

The molecule `Cc1cnc(-c2ccc(C)c(NS(=O)(=O)c3cc(C)c(Cl)cc3C)c2)s1` [Example 98, 4-chloro-2,5-dimethyl-N-(2-methyl-5-(5-methylthiazol-2-yl)phenyl)benzenesulfonamide] showed an AC50 of more than 10000 nM.

`Cc1ccc(C)c(S(=O)(=O)Nc2cccc(C(=O)N[C@@H](C)C3CC3)c2)c1` [Example 8, (S)-N-(1-cyclopropylethyl)-3-((2,5-dimethylphenyl)sulfonamido)benzamide] displayed an AC50 of 3000 nM. The molecule `Cc1cc(S(=O)(=O)Nc2ccc3c(c2)CC(=O)N3)c(C)cc1Cl` [Example 185, 4-chloro-2,5-dimethyl-N-(2-oxoindolin-5-yl)benzenesulfonamide] showed an AC50 of 2000 nM. Take `Cc1cc(S(=O)(=O)Nc2cccc(C(=O)N3CCCC[C@H]3C)c2)c(C)cc1Cl` [Example 9, (R)-4-chloro-2,5-dimethyl-N-(3-(2-methylpiperidine-1-carbonyl)phenyl)benzenesulfonamide]: the AC50 was 2000 nM. In the case of `Cc1cc(S(=O)(=O)Nc2cccc(C(=O)N(C)C)c2)c(C)cc1Cl` [Example 12, 3-((4-chloro-2,5-dimethylphenyl)sulfonamido)-N,N-dimethylbenzamide] it was 2000 nM; in that of `Cc1ccc(C)c(S(=O)(=O)Nc2cccc(C(=O)NCC3CC3)c2)c1` [Example 4, N-(cyclopropylmethyl)-3-((2,5-dimethylphenyl)sulfonamido)benzamide], 11000 nM; in that of “(R)-2,5-dimethyl-N-(3-(3-methylmorpholine-4-carbonyl)phenyl)benzenesulfonamide [Example 1]”, 2000 nM. Molecule `Cc1cnc(-c2ccc(Cl)c(NS(=O)(=O)c3cc(C)c(Cl)cc3C)c2)s1` [Example 102, 4-chloro-N-(2-chloro-5-(5-methylthiazol-2-yl)phenyl)-2,5-dimethylbenzenesulfonamide] registered an AC50 of more than 100000 nM. In the case of `Cc1cc(S(=O)(=O)Nc2cccc(C(=O)N(C)C(C)CO)c2)c(C)cc1Cl` (single isomer, unassigned) [Example 14, 3-((4-chloro-2,5-dimethylphenyl)sulfonamido)-N-(1-hydroxypropan-2-yl)-N-methylbenzamide] it was 2000 nM; in that of `Cc1cc(S(=O)(=O)Nc2cc(F)cc(C(=O)N3CCC[C@H]3C)c2)c(C)cc1Cl` [Example 13, (R)-4-chloro-N-(3-fluoro-5-(2-methylpyrrolidine-1-carbonyl)phenyl)-2,5-dimethylbenzenesulfonamide], 2000 nM; in that of `Cc1ccc(C)c(S(=O)(=O)Nc2cccc(C(=O)N3CCCC[C@@H]3C)c2)c1` [Example 6, (S)-2,5-dimethyl-N-(3-(2-methylpiperidine-1-carbonyl)phenyl)benzenesulfonamide], 5000 nM. Consider `Cc1cc(S(=O)(=O)Nc2cccc(-c3ncc(C#N)s3)c2)c(C)cc1Cl` [Example 96, 4-chloro-N-(3-(5-cyanothiazol-2-yl)phenyl)-2,5-dimethylbenzenesulfonamide], for which the activity was half-maximal at 50000 nM (AC50).

With `Cc1cc(S(=O)(=O)Nc2cccc(-c3ccn(C)n3)c2)c(C)cc1Cl` [Example 18, 4-chloro-2,5-dimethyl-N-(3-(1-methyl-1H-pyrazol-3-yl)phenyl)benzenesulfonamide], the activity was half-maximal at 3000 nM (AC50). In the case of `Cc1cnc(-c2cc(NS(=O)(=O)c3cc(C)c(Cl)cc3C)ccc2C)s1` [Example 103, 4-chloro-2,5-dimethyl-N-(4-methyl-3-(5-methylthiazol-2-yl)phenyl)benzenesulfonamide] it was 9000 nM. In the case of `Cc1cc(S(=O)(=O)Nc2cccc(-c3ncco3)c2)c(C)cc1Cl` [Example 17, 4-chloro-2,5-dimethyl-N-(3-(oxazol-2-yl)phenyl)benzenesulfonamide] it was 800 nM; in that of `Cc1cc(S(=O)(=O)Nc2cccc(C(=O)N3CCC[C@H]3C)c2)c(C)cc1Cl` [Example 10, (R)-4-chloro-2,5-dimethyl-N-(3-(2-methylpyrrolidine-1-carbonyl)phenyl)benzenesulfonamide], 400 nM. The same measure for `Cc1ccc(C)c(S(=O)(=O)Nc2cccc(C(=O)N3CCCCC3)c2)c1` [Example 3, 2,5-dimethyl-N-(3-(piperidine-1-carbonyl)phenyl)benzene sulfonamide]: 5000 nM.
